Assay [1] has as its system RAW264.7. Description: Inhibition of LPS and INF-gamma-induced nitric oxide production in mouse RAW264.7 cells after 16 hrs. As to conditions: for IC50: RAW264.7, 16 h.
Assay [2] has as its system RAW264.7. Description: Inhibition of LPS-induced nitric oxide production in mouse RAW264.7 cells. In kind it is functional, cell-based.

SMILES strings stand for the structures. The source made the active and inactive calls. The calls are words filed in the database; no cut-off is given here.

For `C/C=C(/C)C(=O)O[C@H]1C2=CC(=O)C(OC)=C(OC)[C@@]23COc2c4c(cc(c23)[C@H](OC(C)=O)[C@H](C)[C@]1(C)O)OCO4`, the outcome in the assay with RAW264.7 [1] was inactive.

As for `COC1=C(OC)[C@]23COc4c5c(cc(c42)[C@H](OC(=O)c2ccccc2)[C@H](C)[C@](C)(O)[C@@H](OC(C)=O)C3=CC1=O)OCO5`, the outcome in the assay with RAW264.7 [1] was inactive.

Turning to `COc1cc2c(c(OC(=O)c3ccccc3)c1OC)-c1c(cc3c(c1OC)OCO3)[C@H](O)[C@H](C)[C@H](C)C2`, the result in the assay on RAW264.7 [1] was inactive.

In the case of `COc1cc([C@@H]2c3c(cc(OC)c(OC)c3O)C[C@@H](C)[C@H]2C)cc2c1OCO2` [KADSURALIGNAN H], the IC50 in the assay on RAW264.7 [1] is 19.6 µM.

Consider `C/C=C(\C)C(=O)Oc1c(OC)c(OC)cc2c1-c1c(cc3c(c1OC)OCO3)[C@H](O)[C@H](C)[C@H](C)C2` [KADSURALIGNAN I], for which, in the assay with RAW264.7 [1], inhibition was half-maximal at 87.2 µM (IC50).

In the assay on RAW264.7 [1], `CCC(C)C(=O)Oc1c(OC)c(OC)cc2c1-c1c(cc3c(c1OC)OCO3)[C@H](O)[C@H](C)[C@H](C)C2` (stereo partly drawn) [KADSURALIGNAN J] had a concentration for half-maximal inhibition (IC50) of 33.5 µM.

In the case of `O=c1c(O)c(-c2ccc(O)c(O)c2)oc2cc(O)cc(O)c12` [QUERCETIN], the IC50 amounted to 26.8 µM in the assay on RAW264.7 [2] and 25 µM with RAW264.7 [1].

Broadly, the IC50 is the concentration at which inhibition is half-maximal.
